Reference: patent publication US3980794A, “Method for promoting growth of poultry with 3-(5-nitro-2-imidazolyl)pyrazoles” (Eli Lilly and Company, priority 1975, dated 1976)
≈ marks a conversion by molar mass, not a printed value.

How the values were obtained:
Format in all cases: cell-based
[1] = system: Bacteroides fragilis sp. vulgatus 1211; experiment: Susceptibility of anaerobic bacteria, agar dilution; conditions: 24 h; Bacteroides fragilis sp. vulgatus 1211; read-out: 24 Hr. Minimum Inhibitory Concentration
[2] = system: Clostridium innocuum 1373; experiment: as above; conditions: 24 h; Clostridium innocuum 1373; read-out: 24 Hr. Minimum Inhibitory Concentration
[3] = system: Propionibacterium acnes 44; experiment: as above; conditions: Cutibacterium acnes, 24 h; Propionibacterium acnes 44; read-out: 24 Hr. Minimum Inhibitory Concentration
Actinomyces bovis 13684 = experiment: as above; conditions: 24 h; Actinomyces bovis 13684; read-out: 24 Hr. Minimum Inhibitory Concentration
[4] = system: Clostridium perfringens 81; experiment: microbe, parasite or virus in culture; conditions: Clostridium perfringens, 81, 24 h, read-out: 24 Hr. Minimum Inhibitory Concentration
[5] = system: Peptostreptococcus intermedius 1264; experiment: Susceptibility of anaerobic bacteria, agar dilution; conditions: 24 h; Peptostreptococcus intermedius 1264; read-out: 24 Hr. Minimum Inhibitory Concentration
[6] = system: Bacteroides fragilis sp. fragilis 1877; experiment: as above; conditions: 24 h; Bacteroides fragilis sp. fragilis 1877; read-out: 24 Hr. Minimum Inhibitory Concentration
[7] = system: Fusobacterium symbiosum 1470; experiment: as above; conditions: 24 h; Fusobacterium symbiosum 1470; read-out: 24 Hr. Minimum Inhibitory Concentration
Clostridium ramosum 1313 = experiment: as above; conditions: Thomasclavelia ramosa, 24 h; Clostridium ramosum 1313; read-out: 24 Hr. Minimum Inhibitory Concentration
[8] = system: Fusobacterium necrophorum 13859; experiment: as above; conditions: 24 h; Fusobacterium necrophorum 13859; read-out: 24 Hr. Minimum Inhibitory Concentration
[9] = system: Veillonella alcalescens 1; experiment: as above; conditions: Veillonella parvula, 24 h; Veillonella alcalescens 1; read-out: 24 Hr. Minimum Inhibitory Concentration
[10] = system: Bacteroides fragilis sp. thetaiotaomicron 1438; experiment: as above; conditions: 24 h; Bacteroides fragilis sp. thetaiotaomicron 1438; read-out: 24 Hr. Minimum Inhibitory Concentration
[11] = system: Peptococcus anaerobius 1428; experiment: as above; conditions: 24 h; Peptococcus anaerobius 1428; read-out: 24 Hr. Minimum Inhibitory Concentration
[12] = system: Eubacterium aerofaciens 1235; experiment: as above; conditions: Collinsella aerofaciens, 24 h; Eubacterium aerofaciens 1235; read-out: 24 Hr. Minimum Inhibitory Concentration

SMILES | MIC [1] [µg/mL] | MIC [2] [µg/mL] | MIC [3] [µg/mL] | MIC (Actinomyces bovis 13684) [µg/mL] | MIC [4] [µg/mL] | MIC [5] [µg/mL] | MIC [6] [µg/mL] | MIC [7] [µg/mL] | MIC (Clostridium ramosum 1313) [µg/mL] | MIC [8] [µg/mL] | MIC [9] [µg/mL] | MIC [10] [µg/mL] | MIC [11] [µg/mL] | MIC [12] [µg/mL]
CC(=O)Nc1c(C(=O)O)c(-c2ncc([N+](=O)[O-])n2C)nn1C [Compound 12, 5-acetamido-1-methyl-3-(1-methyl-5-nitro-2-imidazolyl)pyrazole-4-carboxylic acid] | 2 (≈ 6.49 µM) | 8 (≈ 26 µM) | > 32 | 0.5 (≈ 1.62 µM) | 8 (≈ 26 µM) | 32 (≈ 104 µM) | 4 (≈ 13 µM) | < 0.125 | 4 (≈ 13 µM) | < 0.125 | 0.5 (≈ 1.62 µM) | 2 (≈ 6.49 µM) | 8 (≈ 26 µM) | 1 (≈ 3.24 µM)
C=CCOC=Nc1c(C#N)c(-c2ncc([N+](=O)[O-])n2C)nn1C [Compound 13A, Allyl N-[4-cyano-1-methyl-3-(1-methyl-5-nitro-2-imidazolyl)pyrazol-5-yl]formimidate] | < 0.125 | 1 (≈ 3.17 µM) | > 128 | 0.5 (≈ 1.59 µM) | 1 (≈ 3.17 µM) | 16 (≈ 50.7 µM) | 0.5 (≈ 1.59 µM) | < 0.125 | 4 (≈ 12.7 µM) | < 0.125 | < 0.125 | 0.25 (≈ 0.793 µM) | 2 (≈ 6.34 µM) | < 0.125
CCCCC(CC)COC=Nc1c(C#N)c(-c2ncc([N+](=O)[O-])n2C)nn1C (stereo not drawn) [Compound 13D, 2-Ethylhexyl N-[4-cyano-1-methyl-3-(1-methyl-5-nitro-2-imidazolyl)pyrazol-5-yl]formimidate] | 1 (≈ 2.58 µM) | 1 (≈ 2.58 µM) | 16 (≈ 41.3 µM) | 1 (≈ 2.58 µM) | 1 (≈ 2.58 µM) | 16 (≈ 41.3 µM) | 2 (≈ 5.16 µM) | 1 (≈ 2.58 µM) | 1 (≈ 2.58 µM) | < 0.125 | 0.25 (≈ 0.645 µM) | 1 (≈ 2.58 µM) | 2 (≈ 5.16 µM) | 2 (≈ 5.16 µM)
